This passage reports EC50 results from US20240092802A1, “MU-OPIOID RECEPTOR AGONISTS AND USES THEREFOR” (Kures, Inc., priority 2020, published 2024).

What is called EC50 is the concentration at which the effect is half-maximal.

The target in the test is Human MOR (Homo sapiens (Human), UniProt P35372). Put plainly: BRET G protein activation assay, human MOR in transfected HEK-293T cells. The format is cell-based. The settings on record: BRET G protein activation, HEK-293T; mean ± SEM; read-out: EC50 Human MOR. From the text: Transfection. Human or mouse MOR cDNA was transfected alongside GαoB with RLuc8 inserted at position 91 (GαoB-RLuc8), Gβ1 (β1), and Gγ2 fused to the full-length mVenus at its N terminus (mVenus γ2) into HEK-293T cells (5×10^6 cells/plate) in 10-cm dishes using PEI (Polysciences Inc.; Warrington, PA) in a 1:1 ratio diluted in Opti-MEM (Life Technologies Corp.; Grand Island, NY) to assay for G protein activation as described previously (Rives, M.-L. et al. J. Biol. Chem. 2012, 287, 27050-4; Negri, A.; Rives, M.-L.; Caspers, M. J. et al. J. Chem. Inf. Model. 2013, 53, 521-526). Cells were maintained in the Dulbecco's Modified Eagle Medium (high glucose #11965; Life Technologies) supplemented with 10% FBS (Premium Select, Atlanta Biologicals; Atlanta, GA) and 100 U/mL penicillin and 100 μg/mL streptomycin (#15140, Life Technologies). After 24 hours the media was changed, and the experiment was performed 24 hours later (48 hours after transfection).
Human MOR, sequence (P35372 whole entry, the tested form may be a part): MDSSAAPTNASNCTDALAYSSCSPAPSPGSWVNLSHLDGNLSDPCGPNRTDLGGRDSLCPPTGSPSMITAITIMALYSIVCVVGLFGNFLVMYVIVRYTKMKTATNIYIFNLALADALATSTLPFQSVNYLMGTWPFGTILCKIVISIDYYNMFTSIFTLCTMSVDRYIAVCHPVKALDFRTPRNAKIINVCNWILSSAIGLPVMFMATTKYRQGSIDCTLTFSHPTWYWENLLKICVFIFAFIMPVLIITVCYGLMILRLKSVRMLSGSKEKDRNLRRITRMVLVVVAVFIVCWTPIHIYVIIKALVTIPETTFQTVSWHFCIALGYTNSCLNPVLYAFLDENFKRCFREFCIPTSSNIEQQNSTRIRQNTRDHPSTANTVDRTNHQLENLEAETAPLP
BRET. Transfected cells were dissociated and resuspended in phosphate-buffered saline (PBS). Approximately 200,000 cells/well were added to a black-framed, white well 96-well plate (#60050; Perkin Elmer; Waltham, MA). The microplate was centrifuged and the cells were resuspended in PBS. Then 5 μM of the luciferase substrate coelenterazine H was added to each well for 5 minutes. Following coelenterazine H addition, ligands were added and the BRET signal was measured at 5 minutes on a PHERAstar FS plate reader. Quantification of the BRET signal required calculating the ratio of the light emitted by the energy acceptor, mVenus (510-540 nm), over the light emitted by the energy donor, RLuc8 (485 nm). […] Dose response curves were fit using three-parameter logistics equation in GraphPad Prism 6.
With `CCOC(=O)CCCCCCNC1c2ccccc2S(=O)(=O)N(C)c2ccsc21` (stereo not shown) [compound 6, Ethyl 7-((4-methyl-5,5-dioxido-4,10-dihydrobenzo[f]thieno[3,2-c][1,2]thiazepin-10-yl)amino)heptanoate], the 50% effective concentration (EC50) is less than 10 µM.

Regarding `COCCCNC1c2ccccc2S(=O)(=O)N(C)c2ccsc21` (stereo not shown) [compound 7, 10-((3-Methoxypropyl)amino)-4-methyl-4,10-dihydrobenzo[f]thieno[3,2-c][1,2]thiazepine 5,5-dioxide], the EC50 was less than 10 µM. The figure for `COCCCNC1c2ccccc2N(C)S(=O)(=O)c2ccccc21` (stereo not shown) [compound 10, 11-((3-Methoxypropyl)amino)-6-methyl-6,11-dihydrodibenzo[c,f][1,2]thiazepine 5,5-dioxide] is less than 10 µM; for `COCCCNC1c2cc(Br)ccc2N(C)S(=O)(=O)c2cc(Cl)ccc21` (stereo not shown) [compound 11, 9-Bromo-3-chloro-11-((3-methoxypropyl)amino)-6-methyl-6,11-dihydrodibenzo[c,f][1,2]thiazepine 5,5-dioxide] it is less than 10 µM; for `CC(=O)OCCCCCCNC1c2ccccc2N(C)S(=O)(=O)c2cc(Cl)ccc21` (stereo not shown) [compound 13, 6-((3-Chloro-6-methyl-5,5-dioxido-6,11-dihydrodibenzo[c,f][1,2]thiazepin-11-yl)amino)hexyl acetate] it is less than 10 µM. As for `COCCCNC1c2ccccc2N(C)S(=O)(=O)c2cc(C)ccc21` (stereo not shown) [compound 15, 11-((3-Methoxypropyl)amino)-3,6-dimethyl-6,11-dihydrodibenzo[c,f][1,2]thiazepine 5,5-dioxide], the figure is less than 10 µM. Consider `CCOC(CCCNC1c2ccccc2N(C)S(=O)(=O)c2cc(Cl)ccc21)OCC` (stereo not shown) [compound 24, 3-Chloro-11-((4,4-diethoxybutyl)amino)-6-methyl-6,11-dihydrodibenzo[c,f][1,2]thiazepine 5,5-dioxide], for which the EC50 was less than 10 µM. With `CCCCCCCNC1c2ccccc2N(C)S(=O)(=O)c2cc(Cl)ccc21` (stereo not shown) [compound 26, 3-Chloro-11-(heptylamino)-6-methyl-6,11-dihydrodibenzo [c,f][1,2]thiazepine 5,5-dioxide], the EC50 is less than 10 µM. Consider `COCCCNC1c2ccccc2N(C)S(=O)(=O)c2cc(OC)ccc21` (stereo not shown) [compound 27, 3-Methoxy-11-((3-methoxypropyl)amino)-6-methyl-6,11-dihydrodibenzo [c,f][1,2]thiazepine 5,5-dioxide], for which the EC50 was less than 10 µM. Turning to `COCCCNC1c2ccccc2N(C)S(=O)(=O)c2cc(Oc3ccccc3)ccc21` (stereo not shown) [compound 29, 11-((3-Methoxypropyl)amino)-6-methyl-3-phenoxy-6,11-dihydrodibenzo [c,f][1,2]thiazepine 5,5-dioxide], the EC50 was less than 10 µM. The figure for `CN1c2ccccc2C(NCCCC2OCCCO2)c2ccc(Cl)cc2S1(=O)=O` (stereo not shown) [compound 31, 11-((3-(1,3-Dioxan-2-yl)propyl)amino)-3-chloro-6-methyl-6,11-dihydrodibenzo[c,f][1,2]thiazepine 5,5-dioxide] is less than 10 µM; for `CSCCCNC1c2ccccc2N(C)S(=O)(=O)c2cc(Cl)ccc21` (stereo not shown) [compound 33, 3-Chloro-6-methyl-11-((3-(methylthio)propyl)amino)-6,11-dihydrodibenzo[c,f][1,2]thiazepine 5,5-dioxide] it is less than 10 µM.

With `CC(C)OCCCNC1c2ccccc2N(C)S(=O)(=O)c2cc(Cl)ccc21` (stereo not shown) [compound 35, 3-Chloro-11-((3-isopropoxypropyl)amino)-6-methyl-6,11-dihydrodibenzo [c,f][1,2]thiazepine 5,5-dioxide], the EC50 was less than 10 µM.

With `COCCOCCNC1c2ccccc2N(C)S(=O)(=O)c2cc(Cl)ccc21` (stereo not shown) [compound 36, 3-Chloro-11-((2-(2-methoxyethoxy)ethyl)amino)-6-methyl-6,11-dihydrodibenzo[c,f][1,2]thiazepine 5,5-dioxide], the half-maximal effective concentration (EC50) is less than 10 µM. Take `COCCCCNC1c2ccccc2N(C)S(=O)(=O)c2cc(Cl)ccc21` (stereo not shown) [compound 39, 3-Chloro-11-((4-methoxybutyl)amino)-6-methyl-6,11-dihydrodibenzo [c,f][1,2]thiazepine 5,5-dioxide]: the EC50 is less than 10 µM. With `COCCNC1c2ccccc2N(C)S(=O)(=O)c2cc(Cl)ccc21` (stereo not shown) [compound 42, 3-Chloro-11-((2-methoxyethyl)amino)-6-methyl-6,11-dihydrodibenzo [c,f][1,2]thiazepine 5,5-dioxide], the EC50 was less than 10 µM. Consider `COCCCNC1c2ccccc2S(=O)(=O)N(C)c2c(Br)csc21` (stereo not shown) [compound 43, 3-Bromo-10-((3-methoxypropyl)amino)-4-methyl-4, 10-dihydrobenzo[f]thieno[3,2-c][1,2]thiazepine 5,5-dioxide], for which the EC50 is less than 20 µM.

Take `CN1c2ccccc2C(NCC2CCOC2)c2ccc(Cl)cc2S1(=O)=O` (stereo not shown) [compound 46, 3-chloro-6-methyl-11-(((tetrahydrofuran-3-yl)methyl)amino)-6,11-dihydrodibenzo[c,f][1,2]thiazepine 5,5-dioxide]: the EC50 is less than 10 µM. The figure for `CN1CCCC1CCNC1c2ccccc2N(C)S(=O)(=O)c2cc(Cl)ccc21` (stereo not shown) [compound 47, 3-chloro-6-methyl-11-((2-(1-methylpyrrolidin-2-yl)ethyl)amino)-6,11-dihydrodibenzo[c,f][1,2]thiazepine 5,5-dioxide] is less than 20 µM.

Turning to `COCCCNC1c2ccccc2S(=O)(=O)N(C)c2c(OC)cccc21` (stereo not shown) [compound 50, 7-Methoxy-11-((3-methoxypropyl)amino)-6-methyl-6,11-dihydrodibenzo [c,f][1,2]thiazepine 5,5-dioxide], the 50% effective concentration (EC50) is less than 20 µM. Turning to `COCCCNC1c2ccccc2N(C)S(=O)(=O)c2cc([S+](C)[O-])ccc21` (stereo not shown) [compound 55, 11-((3-Methoxypropyl)amino)-6-methyl-3-(methylsulfinyl)-6,11-dihydrodibenzo[c,f][1,2]thiazepine 5,5-dioxide], the EC50 is less than 20 µM. As for `COCCCNC1c2ccccc2N(C)S(=O)(=O)c2cc(-c3ccccc3)ccc21` (stereo not shown) [compound 56, 11-((3-Methoxypropyl)amino)-6-methyl-3-phenyl-6,11-dihydrodibenzo[c,f][1,2]thiazepine 5,5-dioxide], the EC50 was less than 10 µM. As for `CN1c2ccccc2C(NCCCCCCC(=O)NCCO)c2ccc(Cl)cc2S1(=O)=O` (stereo not shown) [compound 57, 7-((3-Chloro-6-methyl-5,5-dioxido-6,11-dihydrodibenzo [c,f][1,2]thiazepin-11-yl)amino)-N-(2-hydroxyethyl) heptanamide], the figure is less than 10 µM. As for `CN1c2ccccc2C(NCCCCCCC2=NCCO2)c2ccc(Cl)cc2S1(=O)=O` (stereo not shown) [compound 58, 3-Chloro-11-((6-(4,5-dihydrooxazol-2-yl)hexyl)amino)-6-methyl-6,11-dihydrodibenzo[c,f][1,2]thiazepine 5,5-dioxide], the EC50 was less than 10 µM.

As for `COCCCNC1c2ccccc2N(C)S(=O)(=O)c2cc(OC(C)=O)ccc21` (stereo not shown) [compound 59, 11-((3-Methoxypropyl)amino)-6-methyl-5,5-dioxido-6,11-dihydrodibenzo[c,f][1,2]thiazepin-3-yl acetate], the EC50 is less than 10 µM. For the compound `COCCCNC1c2ccccc2N(C)S(=O)(=O)c2ccc(Cl)cc21` (stereo not shown) [compound 60, 2-Chloro-11-((3-methoxypropyl)amino)-6-methyl-6,11-dihydrodibenzo [c,f][1,2]thiazepine 5,5-dioxide], the concentration giving a half-maximal response (EC50) is less than 20 µM. As for `COCCCNC1c2ccccc2N(C)S(=O)(=O)c2cc(SC(C)C)ccc21` (stereo not shown) [compound 63, 3-(Isopropylthio)-11-((3-methoxypropyl)amino)-6-methyl-6,11-dihydrodibenzo[c,f][1,2]thiazepine 5,5-dioxide], the figure is less than 10 µM; as for `CCSc1ccc2c(c1)S(=O)(=O)N(C)c1ccccc1C2NCCCOC` (stereo not shown) [compound 64, 3-(Ethylthio)-11-((3-methoxypropyl)amino)-6-methyl-6,11-dihydrodibenzo[c,f][1,2]thiazepine 5,5-dioxide], less than 10 µM. In the case of `CCN1c2ccccc2C(NCCCOC)c2ccccc2S1(=O)=O` (stereo not shown) [compound 65, 6-Ethyl-11-((3-methoxypropyl)amino)-6,11-dihydrodibenzo[c,f][1,2]thiazepine 5,5-dioxide], the EC50 is greater than 20 µM. `COC(C)CCNC1c2ccccc2N(C)S(=O)(=O)c2cc(Cl)ccc21` (stereo not shown) [compound 67, 3-Chloro-11-((3-methoxybutyl)amino)-6-methyl-6,11-dihydrodibenzo [c,f][1,2]thiazepine 5,5-dioxide]: the EC50 was less than 10 µM. Regarding `COCC(C)CNC1c2ccccc2N(C)S(=O)(=O)c2cc(Cl)ccc21` (stereo not shown) [compound 68, 3-Chloro-11-((3-methoxy-2-methylpropyl)amino)-6-methyl-6,11-dihydrodibenzo[c,f][1,2]thiazepine 5,5-dioxide], the EC50 is less than 10 µM.
